≈ marks a conversion by molar mass, not a printed value. Where two headings read alike, the source gives them in different places. Non-standard residues stand in square brackets, D forms with d. Residues, ends and D or L forms follow the SMILES beside them. No end group written: not given here.
Experiments:
[1] = test system: P. aeruginosa PA14 2P4 (pmrB); test: microbe, parasite or virus in culture; conditions: for MIC P. aeruginosa PA14 2P4 (pmrB), 12.5% MHB: 12.5% MHB pH 7.4; for MIC P. aeruginosa PA14 2P4: supplement CSV
How it was run: (§1)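 Minimal inhibitory concentrations come from broth microdilution in MH medium, with a top peptide concentration of 64 μg/mL halved serially.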

E. cloacae = test: microbe, parasite or virus in culture; conditions: for MIC E. cloacae, 12.5% MHB: 12.5% MHB pH 7.4; for MIC E. cloacae, 12.5% MHB / MIC E. cloacae, full MHB: 16–20 h at 37 °C; for MIC E. cloacae, full MHB: full MHB pH 7.4; for MIC E. cloacae: supplement CSV
How it was run: as §1

P. aeruginosa ZEM9A = test: microbe, parasite or virus in culture; conditions: for MIC P. aeruginosa ZEM9A, 12.5% MHB / MIC P. aeruginosa ZEM9A, full MHB: clinical isolate, 16–20 h at 37 °C; for MIC P. aeruginosa ZEM9A, 12.5% MHB: 12.5% MHB pH 7.4; for MIC P. aeruginosa ZEM9A, full MHB: full MHB pH 7.4; for MIC P. aeruginosa ZEM9A: supplement CSV
How it was run: as §1

K. pneumoniae OXA-48 = test: microbe, parasite or virus in culture; conditions: for MIC K. pneumoniae OXA-48, 12.5% MHB / MIC K. pneumoniae OXA-48, full MHB: carbapenem-resistant, 16–20 h at 37 °C; for MIC K. pneumoniae OXA-48, 12.5% MHB: 12.5% MHB pH 7.4; for MIC K. pneumoniae OXA-48, full MHB: full MHB pH 7.4; for MIC K. pneumoniae OXA-48: supplement CSV
How it was run: as §1

P. aeruginosa ZEM-1A = test: microbe, parasite or virus in culture; conditions: for MIC P. aeruginosa ZEM-1A, 12.5% MHB / MIC P. aeruginosa ZEM-1A, full MHB: clinical isolate, 16–20 h at 37 °C, cells marked c: single measurement (in duplicates); for MIC P. aeruginosa ZEM-1A, 12.5% MHB: 12.5% MHB pH 7.4; for MIC P. aeruginosa ZEM-1A, full MHB: full MHB pH 7.4; for MIC P. aeruginosa ZEM-1A: supplement CSV
How it was run: as §1

P. aeruginosa PA14 = test: microbe, parasite or virus in culture; conditions: for MIC P. aeruginosa PA14, 12.5% MHB: 12.5% MHB pH 7.4; for MIC P. aeruginosa PA14, 12.5% MHB / MIC P. aeruginosa PA14, full MHB: 16–20 h at 37 °C, two different duplicate MIC determinations; for MIC P. aeruginosa PA14, full MHB: full MHB pH 7.4; for MIC P. aeruginosa PA14: supplement CSV
How it was run: as §1

[2] = test system: P. aeruginosa PA14 4.13 (phoQ); conditions: for MIC P. aeruginosa PA14 4.13 (phoQ), 12.5% MHB / MIC P. aeruginosa PA14 4.13 (phoQ), full MHB: polymyxin B resistant strain, 16–20 h at 37 °C; for MIC P. aeruginosa PA14 4.13 (phoQ), 12.5% MHB: 12.5% MHB pH 7.4; for MIC P. aeruginosa PA14 4.13 (phoQ), full MHB: full MHB pH 7.4; for MIC P. aeruginosa PA14 4.13: supplement CSV
[3] = test system: E. coli BW25113 sbmA::kan; conditions: Table S1, sbmA::kan mutant, 16-20 h at 37 °C; for MIC E. coli BW25113 SbmA-, 12.5% MH: 12.5% Müller-Hinton medium pH 7.4; for MIC E. coli BW25113 SbmA-, Full MH: full Müller-Hinton medium pH 7.4
Protocol: (§2) Minimum inhibitory concentration assay
(§3) Antimicrobial activity was assayed against P. aeruginosa PAO1, K. pneumoniae NCTC418, E. coli W3110, A. baumannii ATCC 19606, methicillin-resistant S. aureus COL (MRSA), and for selected peptides on P. aeruginosa PA14 and the polymyxin-B-resistant derivative PA14 2P4, as well as the clinical isolates ZEM-1A and ZEM9A, K. pneumoniae OXA-48, S. aureus Newman, Enterobacter cloacae and Burkholderia cenocepacia. The minimal inhibitory concentration (MIC) was determined by using broth microdilution method. A colo ny of bacteria was picked and grown in Luria-Bertani (LB) medium overnight at 37°C. For E. coli BW25113 sbmA::kan the medium was supplemented with 25 mg/L of kanamycin. The next day, the culture was then regrown in LB medium to log phase (OD600 = 0.6 to 0.8), which lasted approximately 4 h, and diluted to an OD600 of 0.022 in the desired medium. Stock solutions of 1 mg/mL of the samples were prepared in sterilized milliQ water and diluted to the beginning concentration of 64 μg/mL in 300 μL Mueller Hinton (MH)-medium. The diluted samples were added to first well of 96-well microtiter plate (TPP, untreated, Faust Laborbedarf, AG, Schaffhausen) and diluted serially by ½. Finally, 4 μL of the bacterial suspension was inoculated into the sample solutions (150 μL/well) with a final inoculation of about 5∙10^5 CFU/mL. The plates were then incubated at 37°C for 15-18h. For each assay, sterility (broth only) and growth control (broth with bacterial inoculum, without antibiotics) were checked with two columns in the plate. The next day, 15 μL of 3-(4,5-dimethylthiazol-2-yl)-2,5-diphenyltetrazolium bromide (MTT) was added to each well of the plate, such a way that MIC was defined as the lowest concentration of the peptide that inhibited visible growth of the tested […]
(§4) Table S1. Activity of stereorandomized and diastereomeric oncocins against E. coli BW25113 WT and BW25113 sbmA::kan mutant in full and 12.5% MH, at pH 7.4. […]
(§5) a) Minimum inhibitory concentration (MIC, μg/mL) was determined on E. coli BW25113 WT and […]

E. coli BW25113 WT = conditions: Table S1, 16-20 h at 37 °C; for MIC E. coli BW25113 WT, 12.5% MH: 12.5% Müller-Hinton medium pH 7.4; for MIC E. coli BW25113 WT, Full MH: full Müller-Hinton medium pH 7.4
Protocol: as §2, §3, §4, §5

human red blood cells = test: Hemolysis assay, minimum hemolytic concentration; conditions: for Haemolysis on hRBC, MHC: 2.5% human red blood cells (final) in 10 mM phosphate, 150 mM NaCl, pH 7.4, 25 °C, 4 h, visual inspection; for MHC human red blood cells: supplement CSV
[4] = polymyxin B resistant strain, 16–20 h at 37 °C

| Compound | MIC P. aeruginosa PA14 2P4 (pmrB), 12.5% MHB [1, 4] [µg/mL] | MIC P. aeruginosa PA14 2P4 ([1]; 12.5% MH pH 7.4) [µg/mL] | MIC E. cloacae, 12.5% MHB (E. cloacae) [µg/mL] | MIC E. cloacae, full MHB (E. cloacae) [µg/mL] | MIC E. cloacae (E. cloacae; 12.5% MH pH 7.4) [µg/mL] | MIC E. cloacae (E. cloacae; full MH pH 7.4) [µg/mL] | MIC P. aeruginosa ZEM9A, 12.5% MHB (P. aeruginosa ZEM9A) | MIC P. aeruginosa ZEM9A, full MHB (P. aeruginosa ZEM9A) | MIC P. aeruginosa ZEM9A (P. aeruginosa ZEM9A; 12.5% MH pH 7.4) [µg/mL] | MIC P. aeruginosa ZEM9A (P. aeruginosa ZEM9A; full MH pH 7.4) [µg/mL] | MIC K. pneumoniae OXA-48, 12.5% MHB (K. pneumoniae OXA-48) | MIC K. pneumoniae OXA-48, full MHB (K. pneumoniae OXA-48) | MIC K. pneumoniae OXA-48 (K. pneumoniae OXA-48; 12.5% MH pH 7.4) [µg/mL] | MIC K. pneumoniae OXA-48 (K. pneumoniae OXA-48; full MH pH 7.4) [µg/mL] | MIC P. aeruginosa ZEM-1A, 12.5% MHB (P. aeruginosa ZEM-1A) | MIC P. aeruginosa ZEM-1A, full MHB (P. aeruginosa ZEM-1A) | MIC P. aeruginosa ZEM-1A (P. aeruginosa ZEM-1A; 12.5% MH pH 7.4) [µg/mL] | MIC P. aeruginosa ZEM-1A (P. aeruginosa ZEM-1A; full MH pH 7.4) [µg/mL] | MIC P. aeruginosa PA14, 12.5% MHB (P. aeruginosa PA14) | MIC P. aeruginosa PA14, full MHB (P. aeruginosa PA14) | further results |
| --- | --- | --- | --- | --- | --- | --- | --- | --- | --- | --- | --- | --- | --- | --- | --- | --- | --- | --- | --- | --- | --- |
| VDKPPYLPRPRPPRRIYNR [sr14Nterm-Onc] (VDKPPYLPRPRPPRRIYNR-NH2; also: residues 1-14 stereorandomized (1:1 L/D mixture)) | 16 | 16 | 8 | > 64 | 8 | >64 | >64/64 μg/mL | >64/64 μg/mL | 64 | >64 | >64/>64 μg/mL | >64/>64 μg/mL | >64 | >64 | >64/>64 ^c μg/mL | >64/>64 ^c μg/mL | >64 | >64 | >64/64 μg/mL | >64/64 μg/mL | MIC P. aeruginosa PA14 2P4 (pmrB), full MHB ([1]; polymyxin B resistant strain, full MHB pH 7.4, 16–20 h at 37 °C): > 64 µg/mL; MIC P. aeruginosa PA14 2P4 ([1]; full MH pH 7.4): >64 µg/mL; MIC P. aeruginosa PA14 (P. aeruginosa PA14; 12.5% MH pH 7.4): 64 µg/mL; MIC P. aeruginosa PA14 (P. aeruginosa PA14; full MH pH 7.4): >64 µg/mL; MIC P. aeruginosa PA14 4.13 (phoQ), 12.5% MHB [2]: 32 µg/mL; MIC P. aeruginosa PA14 4.13 (phoQ), full MHB [2]: > 64 µg/mL; MIC P. aeruginosa PA14 4.13 ([2]; 12.5% MH pH 7.4): 32 µg/mL; MIC P. aeruginosa PA14 4.13 ([2]; full MH pH 7.4): >64 µg/mL; MIC E. coli BW25113 SbmA-, 12.5% MH [3]: 16 µg/mL; MIC E. coli BW25113 SbmA-, Full MH [3]: > 64 µg/mL; MIC E. coli BW25113 WT, 12.5% MH (E. coli BW25113 WT): 16 µg/mL; MIC E. coli BW25113 WT, Full MH (E. coli BW25113 WT): > 64 µg/mL; Haemolysis on hRBC, MHC (human red blood cells): >1000 µg/mL; MHC human red blood cells (human red blood cells): >1000 µg/mL |
| CC[C@H](C)[C@H](NC(=O)[C@@H](CCCNC(=N)N)NC(=O)[C@H](CCCNC(=N)N)NC(=O)[C@@H]1CCCN1C(=O)[C@@H]1CCCN1C(=O)[C@H](CCCNC(=N)N)NC(=O)[C@@H]1CCCN1C(=O)[C@H](CCCNC(=N)N)NC(=O)[C@@H]1CCCN1C(=O)[C@H](CC(C)C)NC(=O)[C@H](Cc1ccc(O)cc1)NC(=O)[C@@H]1CCCN1C(=O)[C@@H]1CCCN1C(=O)[C@H](CCCCN)NC(=O)[C@H](CC(=O)O)NC(=O)[C@@H](N)C(C)C)C(=O)N[C@@H](Cc1ccc(O)cc1)C(=O)N[C@@H](CC(N)=O)C(=O)N[C@H](CCCNC(=N)N)C(N)=O [Onc112, reference compound] (H-VDKPPYLPRPRPPR[dR]IYN[dR]-NH2) | 4 to 8 | 4 to 8 | 1 (≈ 0.418 µM) | 2 (≈ 0.837 µM) | 1 (≈ 0.418 µM) | 2 (≈ 0.837 µM) | 8 µg/mL (≈ 3.35 µM) | > 64 µg/mL | 8 (≈ 3.35 µM) | >64 | 1 µg/mL (≈ 0.418 µM) | 8 µg/mL (≈ 3.35 µM) | 1 (≈ 0.418 µM) | 8 (≈ 3.35 µM) | 8 µg/mL (≈ 3.35 µM) | 32 µg/mL (≈ 13.4 µM) | 8 (≈ 3.35 µM) | 32 (≈ 13.4 µM) | 16 µg/mL (≈ 6.69 µM) | > 32 µg/mL | MIC P. aeruginosa PA14 (P. aeruginosa PA14; 12.5% MH pH 7.4): 16 µg/mL (≈ 6.69 µM); MIC P. aeruginosa PA14 (P. aeruginosa PA14; full MH pH 7.4): >32 µg/mL; MIC P. aeruginosa PA14 4.13 (phoQ), 12.5% MHB [2]: 16 µg/mL (≈ 6.69 µM); MIC P. aeruginosa PA14 4.13 (phoQ), full MHB [2]: > 32 µg/mL; MIC P. aeruginosa PA14 4.13 ([2]; 12.5% MH pH 7.4): 16 µg/mL (≈ 6.69 µM); MIC P. aeruginosa PA14 4.13 ([2]; full MH pH 7.4): >32 µg/mL; MIC E. coli BW25113 SbmA-, 12.5% MH [3]: 4 µg/mL (≈ 1.67 µM); MIC E. coli BW25113 SbmA-, Full MH [3]: > 64 µg/mL; MIC E. coli BW25113 WT, 12.5% MH (E. coli BW25113 WT): 4 µg/mL (≈ 1.67 µM); MIC E. coli BW25113 WT, Full MH (E. coli BW25113 WT): 16 µg/mL (≈ 6.69 µM); Haemolysis on hRBC, MHC (human red blood cells): >1000 µg/mL; MHC human red blood cells (human red blood cells): >1000 µg/mL |
